Assay results reported in ChEMBL document CHEMBL1671738, “In vitro pharmacokinetic and pharmacodynamic evaluation of S-013420 against Haemophilus influenzae and Streptococcus pneumoniae” (Antimicrob Agents Chemother, 2010).
Values after ≈ are worked out from the molar mass of the structure shown.

Columns and labels:
Streptococcus pneumoniae [1] = assay: Antibacterial activity against erythromycin-resistant Streptococcus pneumoniae SR26132 clinical isolate expressing ermB gene by broth microdilution method; type: functional
Haemophilus influenzae [2] = assay: Cmax in Haemophilus influenzae SR24169 clinical isolate in vitro pharmacodynamic model; type: ADME, organism-based; conditions: in vivo
Haemophilus influenzae [3] = assay: AUC (0 to 24 hrs) in Haemophilus influenzae SR24169 clinical isolate in vitro pharmacodynamic model; type: ADME, organism-based; parameters: time < 24 hr; conditions: in vivo
Haemophilus influenzae [4] = assay: %TMIC in Haemophilus influenzae SR24169 clinical isolate based on area above the killing curve index by minimum antibacterial activity criteria based in vitro pharmacodynamic model; type: functional
Haemophilus influenzae [5] = assay: Ratio of AUC (0 to 24 hrs) to MIC in Haemophilus influenzae SR24169 clinical isolate based on viable cell reduction at 24 hrs index by minimum antibacterial activity criteria based in vitro pharmacodynamic model; type: functional
Streptococcus pneumoniae [6] = assay: Maximum antibacterial activity against erythromycin-resistant Streptococcus pneumoniae SR26143 clinical isolate expressing mefA gene based on viable cell reduction at 24 hrs index in vitro pharmacodynamic model; type: ADME, organism-based
Haemophilus influenzae [7] = assay: Ratio of Cmax to MIC in Haemophilus influenzae SR24169 clinical isolate based on viable cell reduction at 24 hrs index by maximum antibacterial activity criteria based in vitro pharmacodynamic model; type: functional
Haemophilus influenzae [8] = assay: Ratio of Cmax to MIC in Haemophilus influenzae SR24169 clinical isolate based on area above the killing curve index by half maximum antibacterial activity criteria based in vitro pharmacodynamic model; type: functional
Haemophilus influenzae [9] = assay: Ratio of AUC (0 to 24 hrs) to MIC in Haemophilus influenzae SR24169 clinical isolate by maximal efficacy criteria based in vitro pharmacodynamic model; type: functional
Streptococcus pneumoniae [10] = assay: Maximum antibacterial activity against erythromycin-susceptible Streptococcus pneumoniae SR26229 clinical isolate based on area above the killing curve index in vitro pharmacodynamic model; type: ADME, organism-based; conditions: in vivo
Haemophilus influenzae [11] = assay: Half life in Haemophilus influenzae SR24169 clinical isolate in vitro pharmacodynamic model; type: ADME, organism-based; conditions: in vivo
Streptococcus pneumoniae [12] = assay: AUC (0 to 24 hrs) in erythromycin-resistant Streptococcus pneumoniae SR26132 clinical isolate expressing ermB gene in vitro pharmacodynamic model; type: ADME, organism-based; parameters: time < 24 hr; conditions: in vivo
Streptococcus pneumoniae [13] = assay: AUC (0 to 24 hrs) in erythromycin-susceptible Streptococcus pneumoniae SR26229 clinical isolate in vitro pharmacodynamic model; type: ADME, organism-based; parameters: time < 24 hr; conditions: in vivo
Haemophilus influenzae [14] = assay: Ratio of AUC (0 to 24 hrs) to MIC in Haemophilus influenzae SR24169 clinical isolate based on area above the killing curve index by minimum antibacterial activity criteria based in vitro pharmacodynamic model; type: functional
Haemophilus influenzae [15] = assay: Antibacterial activity against Haemophilus influenzae SR24169 clinical isolate by broth microdilution method; type: functional
Streptococcus pneumoniae [16] = assay: Cmax in erythromycin-susceptible Streptococcus pneumoniae SR26229 clinical isolate in vitro pharmacodynamic model; type: ADME, organism-based; conditions: in vivo
Streptococcus pneumoniae [17] = assay: Maximum antibacterial activity against erythromycin-resistant Streptococcus pneumoniae SR26132 clinical isolate expressing ermB gene based on viable cell reduction at 24 hrs index in vitro pharmacodynamic model; type: ADME, organism-based
Streptococcus pneumoniae [18] = assay: Maximum antibacterial activity against erythromycin-susceptible Streptococcus pneumoniae SR26229 clinical isolate based on viable cell reduction at 24 hrs index in vitro pharmacodynamic model; type: ADME, organism-based
Haemophilus influenzae [19] = assay: %TMIC in Haemophilus influenzae SR24169 clinical isolate based on area above the killing curve index by half maximum antibacterial activity criteria based in vitro pharmacodynamic model; type: functional
Streptococcus pneumoniae [20] = assay: Minimum antibacterial activity against erythromycin-resistant Streptococcus pneumoniae SR26132 clinical isolate expressing ermB gene based on viable cell reduction at 24 hrs index in vitro pharmacodynamic model; type: ADME, organism-based
Haemophilus influenzae [21] = assay: Ratio of AUC (0 to 24 hrs) to MIC in Haemophilus influenzae SR24169 clinical isolate by bacteriostatic effect criteria based in vitro pharmacodynamic model; type: functional
Streptococcus pneumoniae [22] = assay: Ratio of AUC (0 to 24 hrs) to MIC in erythromycin-resistant Streptococcus pneumoniae SR26143 clinical isolate expressing mefA gene by maximal efficacy criteria based in vitro pharmacodynamic model; type: functional
Streptococcus pneumoniae [23] = assay: Half maximum antibacterial activity against erythromycin-resistant Streptococcus pneumoniae SR26132 clinical isolate expressing ermB gene based on viable cell reduction at 24 hrs index in vitro pharmacodynamic model; type: ADME, organism-based
Streptococcus pneumoniae [24] = assay: Half maximum antibacterial activity against erythromycin-susceptible Streptococcus pneumoniae SR26229 clinical isolate based on area above the killing curve index in vitro pharmacodynamic model; type: ADME, organism-based; conditions: in vivo
Haemophilus influenzae [25] = assay: Ratio of Cmax to MIC in Haemophilus influenzae SR24169 clinical isolate based on area above the killing curve index by minimum antibacterial activity criteria based in vitro pharmacodynamic model; type: functional
Haemophilus influenzae [26] = assay: Ratio of AUC (0 to 24 hrs) to MIC in Haemophilus influenzae SR24169 clinical isolate based on viable cell reduction at 24 hrs index by half maximum antibacterial activity criteria based in vitro pharmacodynamic model; type: functional
Streptococcus pneumoniae [27] = assay: Half maximum antibacterial activity against erythromycin-resistant Streptococcus pneumoniae SR26132 clinical isolate expressing ermB gene based on area above the killing curve index in vitro pharmacodynamic model; type: ADME, organism-based; conditions: in vivo
Haemophilus influenzae [28] = assay: %TMIC in Haemophilus influenzae SR24169 clinical isolate based on viable cell reduction at 24 hrs index by minimum antibacterial activity criteria based in vitro pharmacodynamic model; type: functional
Streptococcus pneumoniae [29] = assay: Antibacterial activity against erythromycin-susceptible Streptococcus pneumoniae SR26229 clinical isolate by broth microdilution method; type: functional
Streptococcus pneumoniae [30] = assay: AUC (0 to 24 hrs) in erythromycin-resistant Streptococcus pneumoniae SR26143 clinical isolate expressing mefA in vitro pharmacodynamic model; type: ADME, organism-based; parameters: time < 24 hr; conditions: in vivo
Streptococcus pneumoniae [31] = assay: Half maximum antibacterial activity against erythromycin-susceptible Streptococcus pneumoniae SR26229 clinical isolate based on viable cell reduction at 24 hrs index in vitro pharmacodynamic model; type: ADME, organism-based
Haemophilus influenzae [32] = assay: Ratio of AUC (0 to 24 hrs) to MIC in Haemophilus influenzae SR24169 clinical isolate based on area above the killing curve index by half maximum antibacterial activity criteria based in vitro pharmacodynamic model; type: functional
Streptococcus pneumoniae [33] = assay: Half maximum antibacterial activity against erythromycin-resistant Streptococcus pneumoniae SR26143 clinical isolate expressing mefA gene based on viable cell reduction at 24 hrs index in vitro pharmacodynamic model; type: ADME, organism-based
Streptococcus pneumoniae [34] = assay: Minimum antibacterial activity against erythromycin-susceptible Streptococcus pneumoniae SR26229 clinical isolate based on viable cell reduction at 24 hrs index in vitro pharmacodynamic model; type: ADME, organism-based
Streptococcus pneumoniae [35] = assay: Half life in erythromycin-susceptible Streptococcus pneumoniae SR26229 clinical isolate in vitro pharmacodynamic model; type: ADME, organism-based; conditions: in vivo
Streptococcus pneumoniae [36] = assay: Minimum antibacterial activity against erythromycin-resistant Streptococcus pneumoniae SR26143 clinical isolate expressing mefA gene based on viable cell reduction at 24 hrs index in vitro pharmacodynamic model; type: ADME, organism-based
Streptococcus pneumoniae [37] = assay: Cmax in erythromycin-resistant Streptococcus pneumoniae SR26143 clinical isolate expressing mefA gene in vitro pharmacodynamic model; type: ADME, organism-based; conditions: in vivo
Haemophilus influenzae [38] = assay: Ratio of AUC (0 to 24 hrs) to MIC in Haemophilus influenzae SR24169 clinical isolate based on area above the killing curve index by maximum antibacterial activity criteria based in vitro pharmacodynamic model; type: functional
Streptococcus pneumoniae [39] = assay: Half life in erythromycin-resistant Streptococcus pneumoniae SR26132 clinical isolate expressing ermB gene in vitro pharmacodynamic model; type: ADME, organism-based; conditions: in vivo
Streptococcus pneumoniae [40] = assay: Ratio of AUC (0 to 24 hrs) to MIC in erythromycin-resistant Streptococcus pneumoniae SR26143 clinical isolate expressing mefA gene by bacteriostatic effect criteria based in vitro pharmacodynamic model; type: functional
Streptococcus pneumoniae [41] = assay: Ratio of AUC (0 to 24 hrs) to MIC in erythromycin-resistant Streptococcus pneumoniae SR26132 clinical isolate expressing ermB gene by maximal efficacy criteria based in vitro pharmacodynamic model; type: functional
Haemophilus influenzae [42] = assay: Ratio of Cmax to MIC in Haemophilus influenzae SR24169 clinical isolate based on viable cell reduction at 24 hrs index by minimum antibacterial activity criteria based in vitro pharmacodynamic model; type: functional
Streptococcus pneumoniae [43] = assay: Antibacterial activity against erythromycin-resistant Streptococcus pneumoniae SR26143 clinical isolate expressing mefA gene by broth microdilution method; type: functional
Haemophilus influenzae [44] = assay: Ratio of AUC (0 to 24 hrs) to MIC in Haemophilus influenzae SR24169 clinical isolate based on viable cell reduction at 24 hrs index by maximum antibacterial activity criteria based in vitro pharmacodynamic model; type: functional
Haemophilus influenzae [45] = assay: Ratio of Cmax to MIC in Haemophilus influenzae SR24169 clinical isolate based on area above the killing curve index by maximum antibacterial activity criteria based in vitro pharmacodynamic model; type: functional
Streptococcus pneumoniae [46] = assay: Ratio of AUC (0 to 24 hrs) to MIC in erythromycin-resistant Streptococcus pneumoniae SR26132 clinical isolate expressing ermB gene by bacteriostatic effect criteria based in vitro pharmacodynamic model; type: functional
Haemophilus influenzae [47] = assay: %TMIC in Haemophilus influenzae SR24169 clinical isolate based on viable cell reduction at 24 hrs index by maximum antibacterial activity criteria based in vitro pharmacodynamic model; type: functional
Streptococcus pneumoniae [48] = assay: Minimum antibacterial activity against erythromycin-susceptible Streptococcus pneumoniae SR26229 clinical isolate based on area above the killing curve index in vitro pharmacodynamic model; type: ADME, organism-based; conditions: in vivo
Streptococcus pneumoniae [49] = assay: Half life in erythromycin-resistant Streptococcus pneumoniae SR26143 clinical isolate expressing mefA gene in vitro pharmacodynamic model; type: ADME, organism-based; conditions: in vivo
Streptococcus pneumoniae [50] = assay: Half maximum antibacterial activity against erythromycin-resistant Streptococcus pneumoniae SR26143 clinical isolate expressing mefA gene based on area above the killing curve index in vitro pharmacodynamic model; type: ADME, organism-based; conditions: in vivo
Haemophilus influenzae [51] = assay: %TMIC in Haemophilus influenzae SR24169 clinical isolate based on area above the killing curve index by maximum antibacterial activity criteria based in vitro pharmacodynamic model; type: functional
Streptococcus pneumoniae [52] = assay: Maximum antibacterial activity against erythromycin-resistant Streptococcus pneumoniae SR26132 clinical isolate expressing ermB gene based on area above the killing curve index in vitro pharmacodynamic model; type: ADME, organism-based; conditions: in vivo
Streptococcus pneumoniae [53] = assay: Maximum antibacterial activity against erythromycin-resistant Streptococcus pneumoniae SR26143 clinical isolate expressing mefA gene based on area above the killing curve index in vitro pharmacodynamic model; type: ADME, organism-based; conditions: in vivo
Streptococcus pneumoniae [54] = assay: Ratio of AUC (0 to 24 hrs) to MIC in erythromycin-susceptible Streptococcus pneumoniae SR26229 clinical isolate by bacteriostatic effect criteria based in vitro pharmacodynamic model; type: functional
Streptococcus pneumoniae [55] = assay: Ratio of AUC (0 to 24 hrs) to MIC in erythromycin-susceptible Streptococcus pneumoniae SR26229 clinical isolate by maximal efficacy criteria based in vitro pharmacodynamic model; type: functional
Streptococcus pneumoniae [56] = assay: Cmax in erythromycin-resistant Streptococcus pneumoniae SR26132 clinical isolate expressing ermB gene in vitro pharmacodynamic model; type: ADME, organism-based; conditions: in vivo

SMILES: CC[C@H]1OC(=O)[C@H](C)C(=O)[C@H](C)[C@@H](O[C@@H]2O[C@H](C)C[C@H](N(C)C)[C@H]2O)[C@@]2(C)C[C@@H](C)/C(=N\C(C)=O)[C@H](C)C(OC/C(=N\OCc3ccc(-n4cccn4)nc3)CO2)[C@]1(C)O (single isomer, unassigned)
- MIC (Streptococcus pneumoniae [1]): 0.25 µg/mL (≈ 0.297 µM)
- Cmax (Haemophilus influenzae [2]): 506 ng/mL
- AUC (Haemophilus influenzae [3]): 8610 ng·h/mL
- Ratio (Haemophilus influenzae [4]): 0
- Ratio (Haemophilus influenzae [5]): -2.4461
- Activity (Streptococcus pneumoniae [6]): 6.12
- Ratio (Haemophilus influenzae [7]): 6.0956
- Ratio (Haemophilus influenzae [8]): 0.6894
- Ratio (Haemophilus influenzae [9]): 10.8
- Activity (Streptococcus pneumoniae [10]): 78.23
- t1/2 (Haemophilus influenzae [11]): 2.22 h
- AUC (Streptococcus pneumoniae [12]): 280 ng·h/mL
- AUC (Streptococcus pneumoniae [13]): 70 ng·h/mL
- Ratio (Haemophilus influenzae [14]): 0
- MIC (Haemophilus influenzae [15]): 8 µg/mL (≈ 9.51 µM)
- Cmax (Streptococcus pneumoniae [16]): 4 ng/mL
- Activity (Streptococcus pneumoniae [17]): 5.98
- Activity (Streptococcus pneumoniae [18]): 6.22
- Ratio (Haemophilus influenzae [19]): 3.0676
- Activity (Streptococcus pneumoniae [20]): -2.14
- Ratio (Haemophilus influenzae [21]): 9.63
- Ratio (Streptococcus pneumoniae [22]): 22.3
- Activity (Streptococcus pneumoniae [23]): 5.11
- Activity (Streptococcus pneumoniae [24]): 9.96
- Ratio (Haemophilus influenzae [25]): 0
- Ratio (Haemophilus influenzae [26]): 10.1172
- Activity (Streptococcus pneumoniae [27]): 8.75
- Ratio (Haemophilus influenzae [28]): -1.1805
- MIC (Streptococcus pneumoniae [29]): 0.063 µg/mL (≈ 0.0749 µM)
- AUC (Streptococcus pneumoniae [30]): 140 ng·h/mL
- Activity (Streptococcus pneumoniae [31]): 9.35
- Ratio (Haemophilus influenzae [32]): 6.9338
- Activity (Streptococcus pneumoniae [33]): 15.89
- Activity (Streptococcus pneumoniae [34]): 2.64
- t1/2 (Streptococcus pneumoniae [35]): 17.6 h
- Activity (Streptococcus pneumoniae [36]): 2.36
- Cmax (Streptococcus pneumoniae [37]): 8 ng/mL
- Ratio (Haemophilus influenzae [38]): 80.2825
- t1/2 (Streptococcus pneumoniae [39]): 17.6 h
- Ratio (Streptococcus pneumoniae [40]): 15.2
- Ratio (Streptococcus pneumoniae [41]): 22
- Ratio (Haemophilus influenzae [42]): -2.3622
- MIC (Streptococcus pneumoniae [43]): 0.125 µg/mL (≈ 0.149 µM)
- Ratio (Haemophilus influenzae [44]): 6.4436
- Ratio (Haemophilus influenzae [45]): 75.7785
- Ratio (Streptococcus pneumoniae [46]): 4.66
- Ratio (Haemophilus influenzae [47]): 4.6778
- Activity (Streptococcus pneumoniae [48]): 0
- t1/2 (Streptococcus pneumoniae [49]): 17.6 h
- Activity (Streptococcus pneumoniae [50]): 16.64
- Ratio (Haemophilus influenzae [51]): 79.0912
- Activity (Streptococcus pneumoniae [52]): 84.15
- Activity (Streptococcus pneumoniae [53]): 80.2
- Ratio (Streptococcus pneumoniae [54]): 9.01
- Ratio (Streptococcus pneumoniae [55]): 16.3
- Cmax (Streptococcus pneumoniae [56]): 16 ng/mL
